# Earlier results in paper PMC11912471 (Journal of Medicinal Chemistry, 2025).
# Where a name gives a salt, the structure may show the parent alone.
# Legend:
# human ODC = system: human ODC; design: method as in earlier work; details: 49−51; cited from earlier work
# [1] = no reference printed for this property; cited from earlier work
# [2] = target: homogeneous mouse kidney ODC; design: method as in PMID 3861182; details: competitive; read-out: Ki, competitive inhibitor of mouse kidney ODC; cited from earlier work
# [3] = target: homogeneous liver adenosylmethionine decarboxylase; design: method as in PMID 3861182; details: irreversible; read-out: Ki, irreversible inhibitor of liver adenosylmethionine decarboxylase; cited from earlier work
# [4] = cited from earlier work
# [5] = target: homogeneous bovine brain spermidine synthase; design: method as in PMID 3861182; details: competitive; read-out: Ki, competitive inhibitor of bovine brain spermidine synthase; cited from earlier work
smiles,measurement,setting,value
"NCCCON [APA, 3-(Aminooxy)propan-1-Amine Dihydrochloride]",IC50 against human ODC (in words),human ODC,low nM range
same,"potency against human ODC, times higher than that of DFMO",human ODC,"10,000 times"
same,water solubility (in words),[1],highly water-soluble
same,Ki,[2],3.2 nM
same,Ki,[3],50000 nM
same,pKa of hydroxyl amine,[4],~5.9
same,Ki,[5],2300 nM
